US9056865B2, “Pyridine-2-derivatives as smoothened receptor modulators” (Pfizer Inc., priority 2010, dated 2015)

Key:
[1] = target: human Smo (Homo sapiens (Human), UniProt Q99835); experiment: Smo radioligand competition binding assay; details: for inhibition at 0.05 µM: read-out: Smo % inh. @ 0.05 μM
In short: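 Membranes from HEK293 cells expressing surface human Smo 181-781 (40 μg protein/well) incubated 2 h at room temperature with test compound and tritiated Smo antagonist (3 nM), pH 7.5 Tris buffer; filtration and scintillation counting. Non-specific binding defined with 30 μM cold antagonist; IC50 from four-parameter sigmoidal fit.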

[2] = tested on: Gli-Luc/MEF cells; experiment: Gli-Luc/MEF assay; type: cell-based, mouse; details: Shh-stimulated luciferase, 48 hours
In short: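 Mouse embryonic fibroblasts from Gli-Luc transgenic mice (luciferase under Gli response element) dosed with compounds (final […], 3-fold series), then stimulated with recombinant mouse Shh at final 2 μg/mL. After 48 h at 37 °C, luminescence read by Bright-Glo; IC50 from inhibition of Shh-induced signal.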

human Smo, sequence (Q99835 181-787): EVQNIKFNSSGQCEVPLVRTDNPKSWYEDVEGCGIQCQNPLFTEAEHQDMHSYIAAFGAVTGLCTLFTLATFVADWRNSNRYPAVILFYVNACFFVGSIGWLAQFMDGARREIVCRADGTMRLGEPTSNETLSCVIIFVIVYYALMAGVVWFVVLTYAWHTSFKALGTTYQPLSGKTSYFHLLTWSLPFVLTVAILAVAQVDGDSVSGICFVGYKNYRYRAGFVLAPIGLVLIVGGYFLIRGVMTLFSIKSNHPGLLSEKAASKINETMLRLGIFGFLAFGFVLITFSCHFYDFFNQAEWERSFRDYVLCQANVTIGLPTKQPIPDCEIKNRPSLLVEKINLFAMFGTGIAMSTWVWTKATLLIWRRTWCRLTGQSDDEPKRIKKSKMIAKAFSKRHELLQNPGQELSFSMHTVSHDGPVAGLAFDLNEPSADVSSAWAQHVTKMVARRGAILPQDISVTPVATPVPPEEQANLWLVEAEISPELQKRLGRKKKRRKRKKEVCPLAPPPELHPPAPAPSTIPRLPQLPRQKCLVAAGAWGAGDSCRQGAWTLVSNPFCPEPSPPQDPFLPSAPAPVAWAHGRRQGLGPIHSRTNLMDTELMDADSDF

Molecule	IC50 [1]	inhibition at 0.05 µM ([1]; 0.05 μM test compound)	IC50 ([2]; Mus musculus, MEF)	Smo % inh. @ 0.05 μM ([1]; 0.05 μM test compound)	IC50 [2]
O=S(=O)(CCO)NC1CCN(c2ccc(Cl)c(-c3ccccn3)n2)CC1 [Example A-126, N-[1-(3-chloro-2,2′-bipyridin-6-yl)piperidin-4-yl]-2-hydroxyethanesulfonamide]	15.2 nM	96.1%	10.3 nM	–	–
Cc1cnc(-c2cc(N3CCC(NS(=O)(=O)C4CC4)CC3)ncc2Cl)c(C)c1 [Example A-127, N-[1-(5′-chloro-3,5-dimethyl-2,4′-bipyridin-2′-yl)piperidin-4-yl]cyclopropanesulfonamide]	11.5 nM	97.8%	5.03 nM	–	–
CS(=O)(=O)CCC(=O)NC1CCN(c2ccc(Cl)c(-c3ccccn3)n2)CC1 [Example A-128, N-[1-(3-chloro-2,2′-bipyridin-6-yl)piperidin-4-yl]-3-(methylsulfonyl)propanamide]	31.3 nM	95%	15.2 nM	–	–
CN(C)CC(=O)NC1CCN(c2ccc(Cl)c(-c3ccccn3)n2)CC1 [Example A-129, N-(1-(3-chloro-[2,2′-bipyridin]-6-yl)piperidin-4-yl)-2-(dimethylamino)acetamide]	54.3 nM	88.4%	8.12 nM	–	–
O=C(CCO)NC1CCN(c2ccc(Cl)c(-c3ccccn3)n2)CC1 [Example A-130, N-[1-(3-chloro-2,2′-bipyridin-6-yl)piperidin-4-yl]-3-hydroxypropanamide]	–	81.3%	35.5 nM	–	–
CC(C)(O)CC(=O)NC1CCN(c2ccc(Cl)c(-c3ccccn3)n2)CC1 [Example A-131, N-[1-(3-chloro-2,2′-bipyridin-6-yl)piperidin-4-yl]-3-hydroxy-3-methylbutanamide]	30.5 nM	92.7%	20.7 nM	–	–
CCS(=O)(=O)NC1CCN(c2ccc(Cl)c(-c3ccccn3)n2)CC1 [Example A-132, N-[1-(3-chloro-2,2′-bipyridin-6-yl)piperidin-4-yl]ethanesulfonamide]	38.2 nM	92%	33.7 nM	–	–
O=S(=O)(NC1CCN(c2ccc(Cl)c(-c3ccccn3)n2)CC1)C1CC1 [Example A-133, N-[1-(3-chloro-2,2′-bipyridin-6-yl)piperidin-4-yl]cyclopropanesulfonamide]	–	94.3%	11.7 nM	–	–
Cc1cnc(-c2cc(N3CCC(S(C)(=O)=O)CC3)ncc2Cl)c(C)c1 [Example A-134, 5′-chloro-3,5-dimethyl-2′-[4-(methylsulfonyl)piperidin-1-yl]-2,4′-bipyridine]	114 nM	80.8%	37.7 nM	–	–
COCC(=O)NC1CCN(c2cc(-c3ncc(C)cc3C)c(Cl)cn2)CC1 [Example A-135, N-[1-(5′-chloro-3,5-dimethyl-2,4′-bipyridin-2′-yl)piperidin-4-yl]-2-methoxyacetamide]	40 nM	94%	7.6 nM	–	–
COCCS(=O)(=O)N1CCN(c2ccc(Cl)c(-c3ccccn3)n2)CC1 [Example A-136, 3-chloro-6-{4-[(2-methoxyethyl)sulfonyl]piperazin-1-yl}-2,2′-bipyridine]	328 nM	58.8%	117 nM	–	–
CS(=O)(=O)NC1CCN(c2ncc(Cl)c(-c3ccccn3)c2F)CC1 [Example A-138, N-(1-(5′-chloro-3′-fluoro-2,4′-bipyridin-2′-yl)piperidin-4-yl)methanesulfonamide]	84.6 nM	80.5%	29.4 nM	–	–
Cc1cnc(-c2c(Cl)cnc(N3CCC(NC(=O)CCS(C)(=O)=O)CC3)c2F)c(C)c1 [Example A-139, N-(1-(5′-chloro-3′-fluoro-3,5-dimethyl-2,4′-bipyridin-2′-yl)piperidin-4-yl)-3-(methylsulfonyl)propanamide]	17.8 nM	101%	1.96 nM	–	–
Cc1cnc(-c2nc(N3CCC(NC(=O)CO)CC3)ccc2Cl)c(C)c1 [Example A-140, N-[1-(3-chloro-3′,5′-dimethyl-2,2′-bipyridin-6-yl)piperidin-4-yl]-2-hydroxyacetamide]	47.7 nM	92%	19.5 nM	–	–
Cc1cnc(-c2ccnc(N3CCN(C(=O)CCS(C)(=O)=O)CC3)c2)c(C)c1 [Example A-141, 1-[4-(3,5-dimethyl-2,4′-bipyridin-2′-yl)piperazin-1-yl]-3-(methylsulfonyl)propan-1-one]	11.6 nM	96.3%	8.42 nM	–	–
Cc1cnc(-c2cc(N3CCN(C(=O)CCS(C)(=O)=O)CC3)ncc2F)c(C)c1 [Example A-142, 1-[4-(5′-fluoro-3,5-dimethyl-2,4′-bipyridin-2′-yl)piperazin-1-yl]-3-(methylsulfonyl)propan-1-one]	20.4 nM	92.7%	16.6 nM	–	–

Molecule	IC50 [1]	inhibition at 0.05 µM ([1]; 0.05 μM test compound)	IC50 ([2]; Mus musculus, MEF)	Smo % inh. @ 0.05 μM ([1]; 0.05 μM test compound)	IC50 [2]
Cc1cnc(-c2ccnc(N3CCC(NS(C)(=O)=O)CC3)c2)c(C)c1 [Example A-143, N-[1-(3,5-dimethyl-2,4′-bipyridin-2′-yl)piperidin-4-yl]methanesulfonamide]	12.2 nM	96.3%	10.4 nM	–	–
Cc1cc(F)cnc1-c1cc(N2CCC(NC(=O)CCS(C)(=O)=O)CC2)ncc1Cl [Example A-144, N-[1-(5′-chloro-5-fluoro-3-methyl-2,4′-bipyridin-2′-yl)piperidin-4-yl]-3-(methylsulfonyl)propanamide]	29.8 nM	91.3%	16.6 nM	–	–
Cc1cc(F)cnc1-c1cc(N2CCC(NC(=O)CN(C)C)CC2)ncc1Cl [Example A-145, N-[1-(5′-chloro-5-fluoro-3-methyl-2,4′-bipyridin-2′-yl)piperidin-4-yl]-N^2,N^2-dimethylglycinamide]	66.2 nM	88.9%	11.3 nM	–	–
Cc1cc(F)cnc1-c1cc(N2CCC(NC(=O)CC(C)(C)O)CC2)ncc1Cl [Example A-146, N-[1-(5′-chloro-5-fluoro-3-methyl-2,4′-bipyridin-2′-yl)piperidin-4-yl]-3-hydroxy-3-methylbutanamide]	52.2 nM	87.4%	20.7 nM	–	–
Cc1ccc(-c2nc(N3CCN(C(=O)CCS(C)(=O)=O)CC3)ccc2Cl)nc1 [Example A-147, 1-[4-(3-chloro-5′-methyl-2,2′-bipyridin-6-yl)piperazin-1-yl]-3-(methylsulfonyl)propan-1-one]	–	94.7%	14.4 nM	–	–
Cc1cc(F)cnc1-c1cc(N2CCC(NS(=O)(=O)CCO)CC2)ncc1Cl [Example A-149, N-[1-(5′-chloro-5-fluoro-3-methyl-2,4′-bipyridin-2′-yl)piperidin-4-yl]-2-hydroxyethanesulfonamide]	20.7 nM	90.6%	10.1 nM	–	–
Cc1cc(F)cnc1-c1cc(N2CCN(S(=O)(=O)CCO)CC2)ncc1Cl [Example A-150, 2-{[4-(5′-chloro-5-fluoro-3-methyl-2,4′-bipyridin-2′-yl)piperazin-1-yl]sulfonyl}ethanol]	80.9 nM	76.9%	29.5 nM	–	–
Cc1cc(F)cnc1-c1cc(N2CCN(C(=O)CCS(C)(=O)=O)CC2)ncc1Cl [Example A-151, 1-[4-(5′-chloro-5-fluoro-3-methyl-2,4′-bipyridin-2′-yl)piperazin-1-yl]-3-(methylsulfonyl)propan-1-one]	–	101%	8.76 nM	–	–
Cc1cc(F)cnc1-c1cc(N2CCN(S(=O)(=O)CC(C)(C)O)CC2)ncc1Cl [Example A-152, 1-{[4-(5′-chloro-5-fluoro-3-methyl-2,4′-bipyridin-2′-yl)piperazin-1-yl]sulfonyl}-2-methylpropan-2-ol]	–	95.9%	11.2 nM	–	–
Cc1cc(F)cnc1-c1cc(N2CCC(NS(=O)(=O)CC(C)(C)O)CC2)ncc1Cl [Example A-153, N-[1-(5′-chloro-5-fluoro-3-methyl-2,4′-bipyridin-2′-yl)piperidin-4-yl]-2-hydroxy-2-methylpropane-1-sulfonamide]	10.6 nM	96.4%	4.71 nM	–	–
Cc1cc(F)cnc1-c1nc(N2CCC(NS(C)(=O)=O)CC2)ccc1Cl [Example A-154, N-[1-(3-chloro-5′-fluoro-3′-methyl-2,2′-bipyridin-6-yl)piperidin-4-yl]methanesulfonamide]	29.2 nM	94.3%	39.5 nM	–	–
COCCS(=O)(=O)N1CCN(c2cc(-c3ncc(C)cc3C)ccn2)CC1 [Example A-155, 2′-{4-[(2-methoxyethyl)sulfonyl]piperazin-1-yl}-3,5-dimethyl-2,4′-bipyridine]	97 nM	77.1%	45 nM	–	–
Cc1cnc(-c2ccnc(N3CCN(C(=O)CN4C[C@@H](C)O[C@@H](C)C4)CC3)c2)c(C)c1 [Example A-156, 1-[4-(3,5-dimethyl-2,4′-bipyridin-2′-yl)piperazin-1-yl]-2-[(2R,6S)-2,6-dimethylmorpholin-4-yl]ethanone]	12.1 nM	102%	6.57 nM	–	–
Cc1cnc(-c2ccnc(N3CCN(C(=O)CN4CCOCC4)CC3)c2)c(C)c1 [Example A-157, 1-[4-(3,5-dimethyl-2,4′-bipyridin-2′-yl)piperazin-1-yl]-2-(morpholin-4-yl)ethanone]	14.8 nM	101%	3.58 nM	–	–
N-[(3-endo)-8-(5′-chloro-3-methyl-2,4′-bipyridin-2′-yl)-8-azabicyclo[3.2.1]oct-3-yl]methanesulfonamide [Example A-124]	100 nM	–	–	79.9%	25.3 nM
